Like-named read-outs stand apart in the source and are kept apart here.
Tests used:
[1] = log P determination by HPLC on reversed-phase columns (EEC Directive 79/831 Annex V.A8); type: physicochemical; conditions: pH 2.7
Description: Determination by LC-MS in the acidic range takes place at a pH of 2.7 using 0.1% aqueous formic acid and acetonitrile (containing 0.1% formic acid) as eluents, with a linear gradient from 10% acetonitrile to 95% acetonitrile.
Calibration was carried out using unbranched alkan-2-ones (having 3 to 16 carbon atoms) with known log P values (the log P values are determined from the retention times by linear interpolation between two successive alkanones).

[2] = test system: caterpillars of the armyworm (Spodoptera frugiperda); test: Spodoptera frugiperda test (SPODFR spray treatment); type: in vivo; conditions: 168 h, read-out: activity in %
Description: (§1) Solvents: 78.0 parts by weight of acetone • • 1.5 parts by weight of dimethylformamide
(§2) Emulsifier: 0.5 part by weight of alkylaryl polyglycol ether
(§3) An appropriate preparation of active compound is prepared by mixing 1 part by weight of active compound with the stated amounts of solvent and emulsifier and diluting the concentrate with emulsifier-containing water to the desired concentration.
Leaf discs of maize (Zea mays) are sprayed with a preparation of active compound at the desired concentration and, after drying, are populated with caterpillars of the armyworm (Spodoptera frugiperda).
After 7 days, the activity in % is ascertained. Here, 100% means that all of the caterpillars have been killed; 0% means that no caterpillar has been killed.

[3] = test system: larvae of the mustard beetle (Phaedon cochleariae); test: Phaedon test (PHAECO spray treatment); type: in vivo; conditions: 168 h, read-out: activity in %
Description: as §1, §2, §3
After 7 days, the activity in % is ascertained. Here, 100% means that all of the beetle larvae have been killed; 0% means that no beetle larvae have been killed.

[4] = HPLC on reversed-phase columns (C 18), EEC Directive 79/831 Annex V.A8, read-out: logP
[5] = reversed-phase C18 HPLC column, HPLC on reversed-phase columns (C 18), EEC Directive 79/831 Annex V.A8, read-out: logP

| chromatographic logP [1, 5] | SMILES | chromatographic logP [1] | pest or weed control at 100 g/ha ([2]; 100 g/ha, after 7 days) [%] | pest or weed control at 100 g/ha ([3]; 100 g/ha, after 7 days) [%] | chromatographic logP [1, 4] | pest or weed control at 100 g/ha [2] [%] | pest or weed control at 100 g/ha [3] [%] |
| --- | --- | --- | --- | --- | --- | --- | --- |
| – | CNC(=O)c1cc(Cl)cc(C)c1NC(=O)c1cc(Cn2nccn2)nn1-c1ncccc1Cl [Example 118] | 2.03 | 100 | 100 | – | – | – |
| – | CCNC(=O)c1cc(I)cc(C)c1NC(=O)c1cc(Cn2ncc(C(F)(F)C(F)(F)F)n2)nn1-c1ncccc1Cl [Example 355] | 3.89 | 100 | 100 | – | – | – |
| – | Cc1cc(I)cc(C(=O)NCC2CC2)c1NC(=O)c1cc(Cn2ncc(C(F)(F)C(F)(F)F)n2)nn1-c1ncccc1Cl [Example 345] | 4.22 | 100 | 100 | – | – | – |
| – | Cc1cc(Cl)cc(C(=O)NC(C)C2CC2)c1NC(=O)c1cc(Cn2nccn2)nn1-c1ncccc1Cl (stereo not drawn) [Example 122] | 2.81 | 100 | 100 | – | – | – |
| – | NC(=O)c1cc(Cl)cc(Cl)c1NC(=O)c1cc(Cn2ncc(C(F)(F)F)n2)nn1-c1ncccc1Cl [Example 145] | 2.69 | 100 | 100 | – | – | – |
| – | Cc1cc(I)cc(C(=O)NC(C)C2CC2)c1NC(=O)c1cc(Cn2cc(C(F)(F)C(F)(F)C(F)(F)F)nn2)nn1-c1ncccc1Cl (stereo not drawn) [Example 336] | – | – | – | 4.36 | 100 | 100 |
| – | CNC(=O)c1cc(C#N)cc(C)c1NC(=O)c1cc(Cn2nc3cc(OC(F)(F)F)cc(Br)c3n2)nn1-c1ncccc1Cl [Example 100] | 3.78 | 100 | 100 | – | – | – |
| – | Cc1cc(Cl)cc(C(=O)NC(C)C2CC2)c1NC(=O)c1cc(Cn2nc(C(F)(F)F)c(C(F)(F)F)n2)nn1-c1ncccc1Cl (stereo not drawn) [Example 410] | 4.5 | 100 | 100 | – | – | – |
| – | Cc1cc(Cl)cc(C(=O)NC(C)(C)C)c1NC(=O)c1cc(Cn2cc(-c3ccc(F)cc3)nn2)nn1-c1ncccc1Cl [Example 45] | 3.63 | 100 | 100 | – | – | – |
| – | CC(NC(=O)c1cc(Cl)cc(Cl)c1NC(=O)c1cc(Cn2cc(C(F)(F)F)nn2)nn1-c1ncccc1Cl)C1CC1 (stereo not drawn) [Example 198] | 3.38 | 100 | 100 | – | – | – |
| 4.38 | CSC[C@H](C)NC(=O)c1cc(Cl)cc(Cl)c1NC(=O)c1cc(Cn2ncc(C(F)(C(F)(F)F)C(F)(F)F)n2)nn1-c1ncccc1Cl [Example 278] | – | 100 | 100 | – | – | – |
| – | CNC(=O)c1cc(Cl)cc(C)c1NC(=O)c1cc(Cn2ncc(-c3cccc(Cl)c3)n2)nn1-c1ncccc1Cl [Example 28] | 3.63 | 100 | 100 | – | – | – |
| – | Cc1cc(Cl)cc(C(=O)NC(C)C)c1NC(=O)c1cc(Cn2nc(C(F)(F)F)c(C(F)(F)F)n2)nn1-c1ncccc1Cl [Example 409] | 4.23 | 100 | 100 | – | – | – |
| 4.34 | Cc1cc(Cl)cc(C(=O)NCC2CC2)c1NC(=O)c1cc(Cn2ncc(C(F)(C(F)(F)F)C(F)(F)F)n2)nn1-c1ncccc1Cl [Example 261] | – | 100 | 100 | – | – | – |
| – | Cc1cc(I)cc(C(=O)NC(C)C)c1NC(=O)c1cc(Cn2cc(C(F)(C(F)(F)F)C(F)(F)F)nn2)nn1-c1ncccc1Cl [Example 235] | 4.09 | 100 | 100 | – | – | – |
| 4.86 | Cc1cc(I)cc(C(=O)NC(C)C2CC2)c1NC(=O)c1cc(Cn2ncc(C(F)(C(F)(F)F)C(F)(F)F)n2)nn1-c1ncccc1Cl (stereo not drawn) [Example 266] | – | 100 | 100 | – | – | – |
| 4.21 | Cc1cc(C#N)cc(C(=O)NC(C)(C)C)c1NC(=O)c1cc(Cn2ncc(C(F)(C(F)(F)F)C(F)(F)F)n2)nn1-c1ncccc1Cl [Example 252] | – | 100 | 100 | – | – | – |
| – | Cc1cc(C#N)cc(C(=O)NC(C)(C)C)c1NC(=O)c1cc(Cn2nc3ccc(C(F)(F)F)cc3n2)nn1-c1ncccc1Cl [Example 114] | 3.94 | 100 | 100 | – | – | – |
| – | Cc1cc(Cl)cc(C(=O)NC(C)C2CC2)c1NC(=O)c1cc(Cn2ncc(C(F)(F)C(F)(F)C(F)(F)F)n2)nn1-c1ncccc1Cl (stereo not drawn) [Example 379] | – | – | – | 4.57 | 100 | 100 |
| 3.46 | CNC(=O)c1cc(C#N)cc(C)c1NC(=O)c1cc(Cn2cc(C(F)(C(F)(F)F)C(F)(F)F)nn2)nn1-c1ccccc1Cl [Example 295] | – | 100 | 100 | – | – | – |
| – | CNC(=O)c1cc(C#N)cc(C)c1NC(=O)c1cc(Cn2ncc(-c3ccc(Cl)cc3Cl)n2)nn1-c1ncccc1Cl [Example 42] | 3.81 | 100 | 100 | – | – | – |
| – | CC(C)NC(=O)c1cc(Cl)cc(Cl)c1NC(=O)c1cc(Cn2ncc(C(F)(C(F)(F)F)C(F)(F)F)n2)nn1-c1ncccc1Cl [Example 275] | 4.17 | 100 | 100 | – | – | – |
| – | Cc1cc(C#N)cc(C(=O)NC(C)(C)C)c1NC(=O)c1cc(Cn2cc(-c3ccc(Cl)cc3Cl)nn2)nn1-c1ncccc1Cl [Example 55] | 4.06 | 100 | 100 | – | – | – |
| 4.64 | Cc1cc(Cl)cc(C(=O)NC(C)(C)C)c1NC(=O)c1cc(Cn2ncc(C(F)(C(F)(F)F)C(F)(F)F)n2)nn1-c1ncccc1Cl [Example 260] | – | 100 | 100 | – | – | – |
| – | Cc1cc(C#N)cc(C(N)=O)c1NC(=O)c1cc(Cn2cc(-c3ccc(C(F)(F)F)cc3)nn2)nn1-c1ncccc1Cl [Example 2] | 2.81 | 100 | 100 | – | – | – |
| – | CSC[C@H](C)NC(=O)c1cc(I)cc(C)c1NC(=O)c1cc(Cn2nc(C(F)(F)F)c(C(F)(F)F)n2)nn1-c1ncccc1Cl [Example 388] | 4.64 | 100 | 100 | – | – | – |
| – | Cc1cc(I)cc(C(=O)NC(C)C2CC2)c1NC(=O)c1cc(Cn2cc(C(F)(F)F)nn2)nn1-c1ncccc1Cl (stereo not drawn) [Example 207] | 3.69 | 100 | 100 | – | – | – |
| – | CSC[C@H](C)NC(=O)c1cc(C#N)cc(C)c1NC(=O)c1cc(Cn2cc(C(F)(F)F)nn2)nn1-c1ncccc1Cl [Example 183] | 2.95 | 100 | 100 | – | – | – |
| – | CNC(=O)c1cc(Cl)cc(C)c1NC(=O)c1cc(Cn2cc(-c3ccc(Cl)cc3)nn2)nn1-c1ncccc1Cl [Example 17] | 3.57 | 100 | 100 | – | – | – |
| 4.09 | Cc1cc(C#N)cc(C(=O)NC(C)(C)C)c1NC(=O)c1cc(Cn2nnc3c(Br)cc(OC(F)(F)F)cc32)nn1-c1ncccc1Cl [Example 111] | – | 100 | 100 | – | – | – |
